pIC50: −log10 of the molar value. Each block holds one compound with its values, some of them ahead of it. Non-standard residues stand in square brackets, D forms with d. Residues, ends and D or L forms follow the SMILES beside them. No end group written: not given here. Tyr(3,5-I2) = N[C@@H](Cc1cc(I)c(O)c(I)c1)C(=O)O
Columns and labels:
anti-iodine antibody [1] = test: ELISA inhibition on anti-iodine antibody (single concentration); assay type: binding, guinea-pig; design: key to ELISA inhibitory activity, judgment: +: a compound had inhibitory activity; -: a compound did not have inhibitory activity
Procedure: (§1) Guinea-pigs were immunized with iodine by injecting subcutaneously 1 mg of iodine containing potassium iodide solution treated with complete Freund's adjuvant seven times at intervals of 2 weeks, and anti-iodine antiserum was obtained from these animals. Antibody titers of the sera were determined by enzyme linked immunosorbent assay (ELISA) using 96 well microplate coated with iodinated guinea pig serum albumin (I-GSA) ELISA inhibition activities of the following compounds were studied. The compounds used were potassium iodide, tyrosine and its derivatives such as L-tyrosine, monoiodo-L-tyrosine, diiodotyrosine, hexaiodo-L-trityrosine, L-hexatyrosine and 12 iodo-L-hexatyrosine, and iodinated X-ray contrast media such as amidotrizoic acid, iodamide, ioxaglic acid, iohexol, iopamidol and iomeprol.
(§2) ELISA inhibition study was performed as follows. Antibody concentration of anti-iodine antiserum gave the maximum optical density in ELISA till one hundredfold serum dilution. Accordingly, seven steps of twofold serial dilution of anti-iodine antiserum, starting from 50-fold serum dilution, were made with physiological saline as a diluent. To each of the serially diluted sera, were added equal volume of solution containing each of the test compounds described above. After overnight incubation at 4 C, antibody activity was determined by ELISA. Phosphate buffered physiological saline (PBS) was used as a control. ELISA inhibitory activities of the test compounds were determined at the serum dilution which gave about 50% of the maximum optical density (OD415nm =2.6) of ELISA of control at serum dilution of one hundredfold. The inhibitory activity was calculated by the following calculation formula.
Inhibition rate=[1-Optical density under test compouund/Optical density

[2] = system: guinea-pigs immunized with iodine (iodine-sensitized) and non-sensitized guinea-pigs; test: Active cutaneous anaphylaxis (ACA) reaction, elicitation antigenicity; assay type: in vivo, guinea-pig (male SPF, Hartley strain); design: key to Mean diameter of blue spots, non-sensitized guinea-pig / Mean diameter of blue spots, iodine-sensitized guinea pig (second value) / Mean diameter of blue spots, iodine-sensitized guinea pig (first value): --: Negative response; **: Weak response; settings: for Mean diameter of blue spots, iodine-sensitized guinea pig (first value) / Mean diameter of blue spots, iodine-sensitized guinea pig (second value) / Mean diameter of blue spots, non-sensitized guinea-pig: 30 min; for ACA reaction (in words): intradermal injection, guinea-pigs sensitized with iodine
From the text: The elicitation antigenicity of iodinated tyrosine derivatives was studied in the bases of the active cutaneous anaphylaxis (ACA) reaction in guinea-pigs immunized with iodine.
Animals: Male SPF guinea-pigs of Hartley strain, weighing 300~350 g were purchased from Charles River Japan Co., Ltd. These were immunized after having been acclimated for one week.
Sensitization: A solution of iodine potassium iodide (Wako Junyaku, special grade reagent) and complete Freund's adjuvant (Difco) were mixed in equal amounts to form an emulsion. This was administered subcutaneously into the back of guinea-pigs at a dose of 2 mg of iodine per animal 3 times at intervals of 2 weeks. Active cutaneous anaphylaxis (ACA) was elicited 2 weeks after the last sensitization injection.
ACA Induction: 2% Evans blue physiological solution (0.5 ml/animal) was administered intravenously to guinea-pigs, and immediately thereafter 0.1 ml of an elicitation antigen was administered intradermally into the back, and after 30 min. the existence of pigment leakage at the intradermally injected sites was observed.
Elicitation antigen: Iodinated dityrosine, iodinated trityrosine, iodinated dityrosylphenylalanine were administered intracutaneously at 0.1 ml/site. Guinea-pig serum albumin (fraction V: Sigma) was iodinated and used as a positive control. Corresponding noniodinated ones were also administered intradermally as negative controls.
Iodination reaction: To a 50 mM boric acid buffer solution (pH 9.5) of 10 mg/ml of dityrosine, trityrosine, or dityrosylphenylalanine (all produced by Sigma Co., Ltd.) or guinea-pig serum albumin (abbreviated hereafter as GSA), a 0.5M solution of iodine was added at a ratio of 10:1, and these were reacted at 37 C. overnight. The excess iodine in the reaction mixture was reduced by adding sodium thiosulfate (Nakarai Chemical Co., Ltd.). For purification of the iodinated tyrosine derivatives, the reaction mixture was extracted with ethyl acetate and dried with magnesium sulfate, and hexane was added to obtain crystals. For purification of the iodinated GSA, the reaction mixture was purified by passing it through a Sephadex G25 column.

anti-iodine antibody [3] = test: ELISA inhibition potency (OD50) on anti-iodine antibody; assay type: binding, guinea-pig; settings: serial twofold dilution, equal volume of 50-fold diluted anti-iodine antiserum; read-out: Inhibitory activity (OD50): concentration which decreased optical density of ELISA to a half of the control
Procedure: as §1, §2
In the next, ELISA inhibition study was undertaken to determine the potency of ELISA inhibitory activity of active compounds. […] The inhibitory activity was expressed as the concentration which decreased optical density of ELISA to a half (OD50) of the control.

Compound: CNC(=O)c1c(I)c(C(=O)NCC(=O)Nc2c(I)c(C(=O)O)c(I)c(C(=O)NCCO)c2I)c(I)c(N(C)C(C)=O)c1I [Ioxaglic acid]
ELISA inhibition rate (anti-iodine antibody [1]; 10 mM): -9.4%
ELISA inhibitory activity, judgment (anti-iodine antibody [1]; 10 mM): +

Compound: N[C@@H](Cc1ccc(O)cc1)C(=O)O [L-Tyrosine]
ELISA inhibition rate (anti-iodine antibody [1]; 10 mM): -2.6%
ELISA inhibitory activity, judgment (anti-iodine antibody [1]; 10 mM): -

Compound: N[C@@H](Cc1cc(I)c(O)c(I)c1)C(=O)N[C@@H](Cc1cc(I)c(O)c(I)c1)C(=O)N[C@@H](Cc1ccccc1)C(=O)O [Iodinated dityrosylphenylalanine] (H-[Tyr(3,5-I2)]-[Tyr(3,5-I2)]-Phe-OH)
Mean diameter of blue spots, iodine-sensitized guinea pig (first value) ([2]; 1 μg/site intradermal): --
Mean diameter of blue spots, iodine-sensitized guinea pig (second value) ([2]; 1 μg/site intradermal): --
Mean diameter of blue spots, non-sensitized guinea-pig ([2]; 1 μg/site intradermal): --
Mean diameter of blue spots, iodine-sensitized guinea pig (first value) ([2]; 10 μg/site intradermal): 7.0 mm
Mean diameter of blue spots, iodine-sensitized guinea pig (second value) ([2]; 10 μg/site intradermal): --
Mean diameter of blue spots, non-sensitized guinea-pig ([2]; 10 μg/site intradermal): --
Mean diameter of blue spots, iodine-sensitized guinea pig (first value) ([2]; 100 μg/site intradermal): 8.0 mm
Mean diameter of blue spots, iodine-sensitized guinea pig (second value) ([2]; 100 μg/site intradermal): 3.0 mm
Mean diameter of blue spots, non-sensitized guinea-pig ([2]; 100 μg/site intradermal): --
ACA reaction (in words) [2]: ACA reaction was elicited

Compound: N[C@@H](Cc1ccc(O)cc1)C(=O)N[C@@H](Cc1ccc(O)cc1)C(=O)O [reference compound] (H-Tyr-Tyr-OH)
Mean diameter of blue spots, iodine-sensitized guinea pig (first value) ([2]; 1000 μg/site intradermal): --
Mean diameter of blue spots, iodine-sensitized guinea pig (second value) ([2]; 1000 μg/site intradermal): --
Mean diameter of blue spots, non-sensitized guinea-pig ([2]; 1000 μg/site intradermal): --

Compound: N[C@@H](Cc1cc(I)c(O)c(I)c1)C(=O)O [Diiodo-L-tyrosine]
ELISA inhibition rate (anti-iodine antibody [1]; 10 mM): 100%
ELISA inhibitory activity, judgment (anti-iodine antibody [1]; 10 mM): +
pIC50 (anti-iodine antibody [3]): 2.30

Compound: C[C@H](O)C(=O)Nc1c(I)c(C(=O)NC(CO)CO)c(I)c(C(=O)NC(CO)CO)c1I [Iopamidol]
ELISA inhibition rate (anti-iodine antibody [1]; 10 mM): -6.5%
ELISA inhibitory activity, judgment (anti-iodine antibody [1]; 10 mM): +

Compound: N[C@@H](Cc1ccc(O)cc1)C(=O)N[C@@H](Cc1ccc(O)cc1)C(=O)N[C@@H](Cc1ccc(O)cc1)C(=O)O [Trityrosine, trityrosine, reference compound] (H-Tyr-Tyr-Tyr-OH)
Mean diameter of blue spots, iodine-sensitized guinea pig (first value) ([2]; 1000 μg/site intradermal): --
Mean diameter of blue spots, iodine-sensitized guinea pig (second value) ([2]; 1000 μg/site intradermal): --
Mean diameter of blue spots, non-sensitized guinea-pig ([2]; 1000 μg/site intradermal): --

Compound: [I-].[K+] [Potassium iodide]
ELISA inhibition rate (anti-iodine antibody [1]; 10 mM): 0%
ELISA inhibitory activity, judgment (anti-iodine antibody [1]; 10 mM): -

Compound: CC(=O)Nc1c(I)c(NC(C)=O)c(I)c(C(=O)O)c1I [Amidotrizoic acid]
ELISA inhibition rate (anti-iodine antibody [1]; 10 mM): 0.3%
ELISA inhibitory activity, judgment (anti-iodine antibody [1]; 10 mM): -

Compound: CC(=O)N(CC(O)CO)c1c(I)c(C(=O)NCC(O)CO)c(I)c(C(=O)NCC(O)CO)c1I (stereo not shown) [Iohexol]
ELISA inhibition rate (anti-iodine antibody [1]; 10 mM): -5.0%
ELISA inhibitory activity, judgment (anti-iodine antibody [1]; 10 mM): +

Compound: CC(=O)NCc1c(I)c(NC(C)=O)c(I)c(C(=O)O)c1I [Iodamide]
ELISA inhibition rate (anti-iodine antibody [1]; 10 mM): 3.5%
ELISA inhibitory activity, judgment (anti-iodine antibody [1]; 10 mM): +

Compound: N[C@@H](Cc1ccc(O)c(I)c1)C(=O)O [Monoiodo-L-tyrosine]
ELISA inhibition rate (anti-iodine antibody [1]; 10 mM): 5.6%
ELISA inhibitory activity, judgment (anti-iodine antibody [1]; 10 mM): -

Compound: N[C@@H](Cc1ccc(O)cc1)C(=O)N[C@@H](Cc1ccc(O)cc1)C(=O)N[C@@H](Cc1ccccc1)C(=O)O [Dityrosylphenylalanine, L-tyrosyl-L-tyrosylphenylalanine, reference compound] (H-Tyr-Tyr-Phe-OH)
Mean diameter of blue spots, iodine-sensitized guinea pig (first value) ([2]; 1000 μg/site intradermal): --
Mean diameter of blue spots, iodine-sensitized guinea pig (second value) ([2]; 1000 μg/site intradermal): --
Mean diameter of blue spots, non-sensitized guinea-pig ([2]; 1000 μg/site intradermal): --

pIC50 (anti-iodine antibody [3]): 3.90
Compound: N[C@@H](Cc1cc(I)c(O)c(I)c1)C(=O)N[C@@H](Cc1cc(I)c(O)c(I)c1)C(=O)N[C@@H](Cc1cc(I)c(O)c(I)c1)C(=O)N[C@@H](Cc1cc(I)c(O)c(I)c1)C(=O)N[C@@H](Cc1cc(I)c(O)c(I)c1)C(=O)N[C@@H](Cc1cc(I)c(O)c(I)c1)C(=O)O [12 iodo-L-hexatyrosine] (H-[Tyr(3,5-I2)][Tyr(3,5-I2)][Tyr(3,5-I2)][Tyr(3,5-I2)][Tyr(3,5-I2)][Tyr(3,5-I2)]-OH)
ELISA inhibition rate (anti-iodine antibody [1]; 1 mM): 94.3%
ELISA inhibitory activity, judgment (anti-iodine antibody [1]; 1 mM): +

Compound: YYYYYY [L-Hexatyrosine]
ELISA inhibition rate (anti-iodine antibody [1]; 1 mM): 0%
ELISA inhibitory activity, judgment (anti-iodine antibody [1]; 1 mM): -

Compound: CN(C(=O)CO)c1c(I)c(C(=O)NCC(O)CO)c(I)c(C(=O)NCC(O)CO)c1I (stereo not shown) [Iomeprol]
ELISA inhibition rate (anti-iodine antibody [1]; 10 mM): -1.8%
ELISA inhibitory activity, judgment (anti-iodine antibody [1]; 10 mM): +

Compound: N[C@@H](Cc1cc(I)c(O)c(I)c1)C(=O)N[C@@H](Cc1cc(I)c(O)c(I)c1)C(=O)O (H-[Tyr(3,5-I2)]-[Tyr(3,5-I2)]-OH)
Mean diameter of blue spots, iodine-sensitized guinea pig (first value) ([2]; 1 μg/site intradermal): --
Mean diameter of blue spots, iodine-sensitized guinea pig (second value) ([2]; 1 μg/site intradermal): --
Mean diameter of blue spots, non-sensitized guinea-pig ([2]; 1 μg/site intradermal): --
Mean diameter of blue spots, iodine-sensitized guinea pig (first value) ([2]; 10 μg/site intradermal): 5.0 mm
Mean diameter of blue spots, iodine-sensitized guinea pig (second value) ([2]; 10 μg/site intradermal): --
Mean diameter of blue spots, non-sensitized guinea-pig ([2]; 10 μg/site intradermal): --
Mean diameter of blue spots, iodine-sensitized guinea pig (first value) ([2]; 100 μg/site intradermal): 7.0 mm
Mean diameter of blue spots, iodine-sensitized guinea pig (second value) ([2]; 100 μg/site intradermal): 5.0 mm
Mean diameter of blue spots, non-sensitized guinea-pig ([2]; 100 μg/site intradermal): --
ACA reaction (in words) [2]: ACA reaction was elicited
